Source: article PMC3808368 (2013)

Experiments:
[1] = tested on: ATP aptamer (ATP aptamer G-quadruplex) (DNA, aptamer) AACCTGGGGGAGTATTGCGGAGGAAGGT; experiment: fluorescence, tracer in G4-FID; details: 100 mM KCl, 50 mM Tris-HCl pH 7.0, 0.25 µM DNA, 0.5 µM thiazole orange
[2] = tested on: ATP aptamer duplex (ATP aptamer + complementary strand) (DNA, duplex) AACCTGGGGGAGTATTGCGGAGGAAGGT/ACCTTCCTCCGCAATACTCCCCCAGGTT; experiment: luminescence enhancement of complex 2; details: none added; 20 mM Tris-HCl pH 7.3, 25°C; slightly emissive without ATP
[3] = tested on: ATP aptamer (ATP aptamer G-quadruplex) (DNA, aptamer) AACCTGGGGGAGTATTGCGGAGGAAGGT; experiment: G4-FID, thiazole orange displacement; details: 100 mM KCl; 50 mM Tris-HCl pH 7.0; 0.25 µM DNA; 0.5 µM thiazole orange displaced
[4] = tested on: ssDNA (DNA, single strand) GAAATTCTTAAGTGCGATCGAG; experiment: luminescence enhancement of complex 2; details: 50 mM KCl; 20-25 mM Tris-HCl pH 7.0; 1 µM complex, 5 µM DNA; minimal luminescence change
[5] = tested on: HTS (DNA, G4) TTAGGGTTAGGGTTAGGGTTAGGG; experiment: luminescence enhancement of complex 2; details: 50 mM KCl; 20-25 mM Tris-HCl pH 7.0; 1 µM complex, 5 µM DNA; up to 8-fold enhancement
[6] = tested on: H21 (DNA, G4) GGGTTAGGGTTAGGGTTAGGG; experiment: luminescence enhancement of complex 2; details: 50 mM KCl; 20-25 mM Tris-HCl pH 7.0; 1 µM complex, 5 µM DNA; up to 8-fold enhancement

| Structure (SMILES) | binding [1] | binding [2] | G4DC50 [3] | binding [4] | binding [5] | binding [6] |
| --- | --- | --- | --- | --- | --- | --- |
| CN1C(=Cc2cc[n+](C)c3ccccc23)Sc2ccccc21 | yes | – | – | – | – | – |
| [Ir+3].[c-]1ccccc1-c1nccc2ccccc12.[c-]1ccccc1-c1nccc2ccccc12.c1ccc2nc(-c3ccc4ccccc4n3)ccc2c1 | – | weak | 5 µM | no | yes | yes |
| [Ir+3].[c-]1ccccc1-c1ccccn1.[c-]1ccccc1-c1ccccn1.c1ccc2nc(-c3ccc4ccccc4n3)ccc2c1 | – | – | > 6 µM | – | – | – |
